{
  "source": "paper PMC3653315",
  "about": "(Biomolecular NMR assignments, 2011)",
  "target": "Ssu72 (dSsu72) (Drosophila melanogaster, UniProt Q9VWE4)",
  "sequence (Q9VWE4 1-195)": "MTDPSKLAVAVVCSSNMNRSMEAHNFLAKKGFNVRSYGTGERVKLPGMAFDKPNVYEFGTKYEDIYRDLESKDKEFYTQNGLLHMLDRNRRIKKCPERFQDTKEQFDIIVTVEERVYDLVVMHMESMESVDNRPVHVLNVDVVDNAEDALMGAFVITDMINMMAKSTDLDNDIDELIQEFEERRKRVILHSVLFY",
  "settings": "25 mM Tris-HCl, 25 mM KCl, 2 mM dithiothreitol, 5% D2O, 30 °C; phosphate up to 25:1 molar ratio; active site loop",
  "data": [
    {"smiles": "O=P(O)(O)O", "note": "[inorganic phosphate]", "values": [
      {"measurement": "NMR titration, 1H/15N-HSQC-TROSY chemical shift perturbation", "result": "large number of significant perturbations upon titration of wild-type Ssu72 with inorganic phosphate"}
    ]}
  ]
}
